Earlier results on one compound are cited in patent EP4119941A1, “HEMOGLOBIN ASSAY METHOD” (Sekisui Medical Co., Ltd., priority 2020, dated 2021).

Structures are written as SMILES.

The conditions of this data set: at 25°C.

Broadly, the pKa is the negative logarithm of the acid dissociation constant. Regarding `O=S(=O)(O)CCNC(CO)(CO)CO` [TES, N-tris(hydroxymethyl)methyl-2-aminoethanesulfonic acid], the pKa is 7.55.
